The values below come from ChEMBL document CHEMBL1141799, “Cyanopeptolin 954, a chlorine-containing chymotrypsin inhibitor of Microcystis aeruginosa NIVA Cya 43” (J Nat Prod, 2005).

Assay [1] is described as follows: Inhibition of bovine chymotrypsin. Details: species or system Bos taurus.
Assay [2] is filed under the species Bos taurus. Put plainly: Inhibition of bovine trypsin at 11.4 uM.
For assay [3], the species on record is Bos taurus. Put plainly: Inhibition of bovine trypsin at 17.3 uM.
The nature of assay [4]: Inhibition of chymotrypsin.

Calls of active or inactive are those of the source. No cut-off for these calls is given here.

The term IC50 denotes the concentration at which inhibition is half-maximal. In assay [1], `CC(=O)N[C@@H](CCC(N)=O)C(=O)N[C@@H]1C(=O)N[C@@H](CC(C)C)C(=O)N[C@H]2CC[C@@H](O)N(C2=O)[C@@H](Cc2ccccc2)C(=O)N(C)[C@@H](Cc2ccc(O)c(Cl)c2)C(=O)N[C@@H](C(C)C)C(=O)O[C@H]1C` [CYANOPEPTOLIN 954] showed an IC50 of 0.0445 µM. Moreover, the outcome in the assay listed under Bos taurus [2] and in the assay listed under Bos taurus [3] was inactive.

Compound `CC[C@H](C)[C@@H]1NC(=O)[C@H](Cc2ccc(O)cc2)N(C)C(=O)[C@H](Cc2ccccc2)N2C(=O)[C@H](CC[C@H]2O)NC(=O)[C@H](Cc2ccccc2)NC(=O)[C@@H](NC(=O)[C@@H](O)COP(=O)(O)O)[C@@H](C)OC1=O` [MICROPEPTIN T 20] registered a concentration for half-maximal inhibition (IC50) in assay [4] of 0.0025 µM.

For the compound `CC(=O)N[C@@H](CCC(N)=O)C(=O)N[C@@H]1C(=O)N[C@@H](CC(C)C)C(=O)N[C@H]2CC[C@@H](O)N(C2=O)[C@@H](Cc2ccccc2)C(=O)N(C)[C@@H](Cc2ccc(O)cc2)C(=O)N[C@@H](C(C)C)C(=O)O[C@@H]1C` [NOSTOPEPTIN BN920], 0.0312 µM corresponded to half-maximal inhibition in assay [1] (IC50). The result in the assay listed under Bos taurus [2] and in the assay listed under Bos taurus [3] was inactive.
